These results are taken from patent publication US8501940B2, “Tetrahydrocinnoline derivatives” (Hoffmann-La Roche Inc., priority 2008, dated 2013).

One experiment concerns the target T1, human 11beta-HSD1 (Homo sapiens, UniProt P28845).
T1 construct: made in house; host or cells: HEK293 cells (ATCC CRL-1573), transient transfection with a pcDNA3 construct; microsomal fraction used
In words: Microsome assay (cortisone to cortisol conversion, ELISA detection). The class given is biochemical. Particulars: microsomes from HEK293 cells transiently expressing human 11beta-HSD1; Cortisone 50-200 nM, NADPH 1 mM; 60 min at 37° C.; cortisol by ELISA; read-out: h 11-beta-HSD 1 IC50. On the procedure:
The cDNA encoding the human 11beta-HSD1 protein was cloned into the expression vector pcDNA3 (Stratagene). This construct (for details see Alex Odermatt et al.; J Biol Chem., 1999, Vol. 274, Issue 40, 28762-28770) was used to transiently express the protein in HEK293 cells (ATCC number: CRL-1573, described in Graham, F. L., Smiley, J., Russell, W. C., Nairn, R.; (1977)) using lipofectamine. 48 h after transfection cells were washed twice with ice-cold PBS (Phosphate buffered Saline). To 1 volume of cell suspension in PBS 2 volumes of ice-cold lysis buffer (50 mM Tris; pH7.5; 1 mM EDTA; 100 mM NaCl) were added. The cells were lysed by Potter-homogenization (20 strokes). The resulting homogenate was sonicated with a tip sonicator (10% output; 2×30 sec.) and cleared by a low speed centrifugation (10 min×9000 g; 4° C.). The microsomal fraction was collected by a high speed centrifugation (60 min×110,000 g). The resulting pellet was resuspended in storage buffer (20 mM Tris pH 7.5; 1 mM EDTA; 10% Glycerol) and the centrifugation was repeated. The resulting pellet containing the microsomal fraction was again taken up into storage buffer and aliquots were kept frozen in liquid Nitrogen until use.
Microsomes isolated from HEK293 cells transiently expressing human 11beta-HSD1 (for details see above) were incubated in assay buffer (100 mM NaCl; 1 mM EDTA; 1 mM EGTA; 1 mM MgCl; 250 mM Sucrose; 20 mM Tris pH 7.4; Cortisone 50-200 nM and NADPH 1 mM) together with different concentrations of test substances. After 60 min. of incubation at 37° C. the assay was stopped by heating to 80° C. (5 min.) and by addition of the inhibitor Carbenoxolone (1 uM). The amount of Cortisol produced in this assay was determined using a commercially available, ELISA-based Cortisol-detection kit (Distributed by Assay Design, Inc.). Inhibitors were characterized by there IC50 values, e.g. the concentration at which the production of cortisol was 50% reduced.
(In general: An ELISA detects its analyte on a solid surface through an enzyme-linked reagent.)

Another experiment deals with men. The note with it: treatment with carbenoxolone in men; cited from earlier work.

As usually defined, the IC50 is the point on the concentration scale where inhibition reaches its midpoint.

T1 sequence (P28845 whole entry): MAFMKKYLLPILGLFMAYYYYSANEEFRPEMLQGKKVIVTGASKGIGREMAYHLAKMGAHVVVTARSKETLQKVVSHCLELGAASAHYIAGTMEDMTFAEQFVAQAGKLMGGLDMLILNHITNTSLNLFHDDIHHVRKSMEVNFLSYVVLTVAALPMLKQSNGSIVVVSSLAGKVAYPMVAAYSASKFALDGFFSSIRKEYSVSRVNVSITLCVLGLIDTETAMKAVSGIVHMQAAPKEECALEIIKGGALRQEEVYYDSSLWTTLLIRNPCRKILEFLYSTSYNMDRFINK

Turning to `Fc1ccc(-c2cc3c(nn2)C2CCC3C23CCCC3)c(C(F)(F)F)c1` (stereo not drawn) [Example 27, (5′RS,8′SR)-3′-[4-fluoro-2-(trifluoromethyl)phenyl]-5′,6′,7′,8′-tetrahydrospiro[cyclopentane-1,9′-[1′,2′]diaza[5′,8′]methanocinnoline]], on human 11beta-HSD1, the IC50 stood at 1 pM.

Turning to `Fc1ccc(-c2cc3c(nn2)C2CCC3C23CCCC3)c(Cl)c1` (stereo not drawn) [Example 28, (5′RS,8′SR)-3′-(2-chloro-4-fluorophenyl)-5′,6′,7′,8′-tetrahydrospiro[cyclopentane-1,9′-[1′,2′]diaza[5′,8′]methanocinnoline]], the IC50 on human 11beta-HSD1 came out at 1 pM.

On to `Cc1ccccc1-c1cc2c(nn1)C1CCC2C12CCCC2` (stereo not drawn) [Example 29, (5′RS,8′SR)-3′-(2-methylphenyl)-5′,6′,7′,8′-tetrahydrospiro[cyclopentane-1,9′-[1′,2′]diaza[5′,8′]methanocinnoline]], for which the IC50 on human 11beta-HSD1 is 1 pM.

Take `Cc1c(-c2cc3c(nn2)C2CCC3C23CCCC3)cnn1-c1ccccc1` (stereo not drawn) [Example 30, (5′RS,8′SR)-3′-(5-methyl-1-phenyl-1H-pyrazol-4-yl)-5′,6′,7′,8′-tetrahydrospiro[cyclopentane-1,9′-[1′,2′]diaza[5′,8′]methanocinnoline]]: the IC50 on human 11beta-HSD1 stood at 62 pM.

Consider `Cc1c(-c2cc3c(nn2)C2CCC3C23CCCC3)cnn1C(C)(C)C` (stereo not drawn) [Example 31, (5′RS,8′SR)-3′-(1-tert-butyl-5-methyl-1H-pyrazol-4-yl)-5′,6′,7′,8′-tetrahydrospiro[cyclopentane-1,9′-[1′,2′]diaza[5′,8′]methanocinnoline]], for which the IC50 at human 11beta-HSD1 came to 13 pM.

As for `FC(F)(F)c1ccc(Cl)cc1-c1cc2c(nn1)C1CCC2C12CCCC2` (stereo not drawn) [Example 32, (5′RS,8′SR)-3′-[5-chloro-2-(trifluoromethyl)phenyl]-5′,6′,7′,8′-tetrahydrospiro[cyclopentane-1,9′-[1′,2′]diaza[5′,8′]methanocinnoline]], at human 11beta-HSD1, the IC50 amounted to 6 pM.

For the molecule `CC1(C)[C@@H](OC(=O)CCC(=O)O)CC[C@]2(C)[C@H]3C(=O)C=C4[C@@H]5C[C@@](C)(C(=O)O)CC[C@]5(C)CC[C@@]4(C)[C@]3(C)CC[C@@H]12` [carbenoxolone], the insulin sensitivity entry in the experiment on men is “increase in insulin sensitivity”.

Turning to “(5′RS,8′SR)-3′-(2-methylphenyl)-5′,6′,7′,8′-tetrahydrospiro[cyclopropane-1,9′-[1′,2′]diaza[5′,8′]methanocinnoline] [Example 26]”, the IC50 at human 11beta-HSD1 is 5 pM.
